Laboratory results: PubChem BioAssay (NCI)
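The compound was tested at five concentrations on cells cultured in 96-well plates, with a 48-hour exposure period. TGI denotes the concentration required for complete inhibition of growth.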

How the values were obtained:
Assay in all cases: growth of human tumour cells (NCI), 48 h
[1] = system: OVCAR-8 ovarian
[2] = system: HL-60(TB) leukemia
[3] = system: PC-3 prostate
[4] = system: HOP-92 NSCLC
[5] = system: MDA-MB-435
[6] = system: SK-MEL-5 melanoma
[7] = system: SF-268 CNS
[8] = system: OVCAR-4 ovarian
[9] = system: SF-295 CNS
[10] = system: SN12C renal
[11] = system: NCI-H23 lung
[12] = system: HCC-2998 colon
[13] = system: DU-145 prostate
[14] = system: HCT-116 colon
[15] = system: HCT-15 colon
[16] = system: KM12 colon
[17] = system: UACC-257 melanoma
[18] = system: U251 CNS
[19] = system: RXF 393 renal
[20] = system: SNB-75 CNS

Measured: TGI

Cc1n[nH]c(=O)n1/N=C/c1cccnc1
> 100 µM: [1] | [2] | [3] | [4] | [5] | [6] | [7] | [8] | [9] | [10] | [11] | [12] | [13] | [14] | [15] | [16] | [17] | [18]

C/C1=C\CC[C@@]2(C)O[C@@H]2[C@H]2OC(=O)C(C)C2C[C@H]1O (stereo not given in full)
> 100 µM: [1] | [3] | [4] | [5] | [6] | [7] | [8] | [9] | [19] | [10] | [11] | [12] | [13] | [14] | [15] | [16] | [17] | [18] | [20]

COc1cc(/C=C2\N=C(c3ccccc3)N(/N=C/c3cc4cc(C)ccc4nc3Cl)C2=O)cc(OC)c1OC
28.2 µM: [2]
> 100 µM: [1] | [4] | [6] | [7] | [8] | [9] | [10] | [14] | [15] | [16] | [17]
61.5 µM: [20]
54.7 µM: [3]
80.6 µM: [13]
40.7 µM: [5]
51 µM: [18]
45.4 µM: [12]

CC(C)N1CCCOC(c2ccc([N+](=O)[O-])cc2)O1 (stereo not given)
> 100 µM: [1] | [3] | [4] | [5] | [6] | [7] | [8] | [9] | [19] | [10] | [11] | [12] | [13] | [14] | [15] | [16] | [17] | [18] | [20]

CC(C)(C)C(=O)Nc1cccc(-c2ccc[nH]2)n1
> 100 µM: [1] | [3] | [4] | [5] | [6] | [7] | [8] | [9] | [19] | [10] | [11] | [12] | [13] | [14] | [15] | [16] | [17] | [18] | [20]

O=c1c2c3c(sc2nc2n1N=CN(c1ccc(Cl)cc1)C2)CCCC3
> 100 µM: [1] | [3] | [4] | [5] | [6] | [7] | [8] | [9] | [19] | [10] | [11] | [13] | [14] | [15] | [16] | [17] | [18] | [20]
72 µM: [12]

O=C(/C=C/c1cccs1)c1ccc(C(=O)/C=C/c2cccs2)cc1
> 100 µM: [1] | [3] | [4] | [5] | [7] | [8] | [9] | [10] | [11] | [12] | [13] | [15] | [16] | [17] | [18] | [20]

C=CC(c1ccccc1)C1(O)c2cccc(O)c2C(=O)c2c(O)cccc21 (stereo not given)
40.2 µM: [17]
32 µM: [6]
41.8 µM: [20]
30.5 µM: [4]
28.8 µM: [13]
28.1 µM: [3]
24.5 µM: [18]
33.2 µM: [8]
29.1 µM: [19]
40.9 µM: [16]
22.9 µM: [12]
29.4 µM: [15]
24.7 µM: [14]
30.8 µM: [11]
43 µM: [1]
36.6 µM: [7]
22 µM: [5]
40.4 µM: [9]

N=C(N)C1CN(CC=O)C(=O)NC1=O (stereo not given)
> 100 µM: [1] | [2] | [3] | [4] | [5] | [6] | [7] | [8] | [9] | [10] | [11] | [12] | [13] | [14] | [15] | [17] | [18] | [20]

COC(=O)c1cc(C#N)[nH]c1-c1cccs1
> 100 µM: [1] | [3] | [4] | [5] | [7] | [8] | [9] | [10] | [11] | [12] | [13] | [14] | [15] | [16] | [17] | [18] | [20]
86.1 µM: [19]

CCOC(=O)Oc1cc2c(ccn2C)c2c1c1ccccc1n2C(=O)OCC
> 100 µM: [1] | [3] | [4] | [5] | [6] | [7] | [8] | [9] | [19] | [10] | [11] | [13] | [14] | [15] | [16] | [17] | [18] | [20]
